Assay results as given in patent publication US4367339A, “Substituted N-nitroaniline compounds and inorganic and organic salts thereof useful for enhancing auxiliary branching, canopy flowering and crop yield of plant and as lodging inhibitors therefor” (priority 1980, dated 1983).
Structures can show the parent of a compound that is named as a salt.

How the values were obtained:
[1] = system: soybeans (Glycine max) Adelphia variety; experiment: Increasing axillary branching and improving the canopy of broad leaf plants (soybeans); assay type: in vivo, soybean (Glycine max); conditions: three weeks after treatment
Text: In these tests seedling soybean plants approximately three weeks old, and grown in plastic pots to the 2nd to 3rd trifoliate stage, are sprayed with solutions or dispersions of test compound prepared as described in Example 7 above. The same spraying apparatus, described in Example 7 above, is used and after spraying the plants are placed on greenhouse benches and watered and fertilized. Three weeks after treatment the plants are examined to determine what effect the application of test compound has had on the axillary branching and canopy development of the treated plants.
Increased axillary branching and improved canopy are biological responses which are highly advantageous in the growing of ornamental plants. These responses also have advantage in many crops since increased branching may result in the greater production of fruit, while improved canopy tends to shade and suppress the growth of undesirable weeds that compete with the crops for sunlight, water and plant nutrients. Data obtained are reported in table VII below where axillary branching and canopy are reported as percent increase over untreated controls.

[2] = system: soybean (Glycine max) Adelphia; experiment: Dwarfing and stem stiffening of soybeans (plant height, greenhouse, foliar spray); assay type: in vivo; conditions: three weeks after spraying
Procedure: In the following tests, test compounds are dissolved or dispersed in acetone-water (1:1) mixtures at the final concentration corresponding to the kg/ha rates indicated in the table below. The solution also contains 0.25% v/v colloidal BIOFILM® (a product of Colloidal Products Corp.) which is a mixture of alkyl aryl polyethoxyethanol, free and combined fatty acids, glycol ethers, dialkylbenzene carboxylate and 2-propanol.
The plant species used in these tests are barley (Hordeum vulgare), (Mexico) and soybean (Glycine max)Adelphia.
The solution or dispersion of the compound under test is sprayed at a rate of 747 l/ha with a moving nozzle along an overhead stationary track. The spray nozzle moves at a constant speed over the plants.
The plants are grown in plastic pots, and are well established at the time of treatment. The seedlings of barley are 10 to 20 cm in height, while the seedlings of soybeans are at the second to third trifoliate stage. Plants are watered prior to treatment and then sprayed to provide the kg/ha rate of test compound desired. After spraying the plants are placed on greenhouse benches and watered and fertilized in accordance with normal greenhouse procedures.
Three weeks after spraying the plants are measured and harvested. Harvesting is done at the boot stage. All treatments are replicated six times and comparisons are made against untreated controls. Data obtained are reported in Table VI below as percent reduction in plant height over untreated controls.

[3] = system: barley (Hordeum vulgare, var. Georgie); experiment: Antilodging effects on barley; assay type: in vivo; set-up: key to Tiller formation / Stem stiffness: 5 = no increase over controls, 3 = moderate significant increase; conditions: for Stem stiffness / Tiller formation: control 5; for Weight Fresh: control 49.1; for Height: control 53.1; for Phytotoxicity: three weeks after spraying; for Weight Dry: control 5.2
Procedure: In this experiment the procedure of Example 7 is repeated excepting that the crop used was barley (Hordeum vulgare, var. Georgie; European lodging prone variety). The plants are treated at the 3-4 leaf stage. Plants are watered prior to treatment and then sprayed to provide the kg/ha rate of test compound desired. After spraying the plants are placed on greenhouse benches and watered and fertilized in accordance with normal greenhouse procedures.
Three weeks after spraying the plants are measured and harvested. All treatments are replicated six times and companions are made against untreated controls.
The following rating system is used:
5=No increase over controls
3=Moderate, significant increase over controls.

O=[N+]([O-])Nc1c(Br)cc(Br)cc1Br [1-Hexadecylpyridinium salt with 2,4,6-tribromo-N--aci-nitroa]
% Increase in Plant Canopy over untreated controls ([1]; rate 0.125 kg/ha): normal | % Increase in axillary branching over untreated controls ([1]; rate 0.125 kg/ha): normal | % Increase in axillary branching over untreated controls ([1]; rate 0.25 kg/ha): normal | % Increase in axillary branching over untreated controls ([1]; rate 0.5 kg/ha): normal

CCCC[P+](CCCC)(CCCC)Cc1ccc(Cl)cc1Cl.O=[N+]([O-])[N-]c1c(Br)cc(Br)cc1Br [Tributyl(2,4-dichlorobenzyl) phosphonium salt with 2,4,6-tribromo-N--aci-nitroaniline]
% Increase in Plant Canopy over untreated controls ([1]; rate 0.125 kg/ha): normal | % Increase in axillary branching over untreated controls ([1]; rate 0.125 kg/ha): normal | % Increase in Plant Canopy over untreated controls ([1]; rate 0.5 kg/ha): moderate reduction

O=[N+]([O-])Nc1c(Br)cc(Br)cc1Br [Dodecylamine with 2,4,6-tribromo-N--nitroaniline]
% Reduction in Plant Height over untreated controls ([2]; rate 0.125 kg/ha): > 15% | % Reduction in Plant Height over untreated controls ([2]; rate 0.25 kg/ha): > 25% | % Reduction in Plant Height over untreated controls ([2]; rate 0.5 kg/ha): > 35%

Cn1c(-c2ccccc2)cc(-c2ccccc2)[n+]1C.O=[N+]([O-])[N-]c1c(Cl)cc(Cl)cc1Cl [1,2-Dimethyl-3,5-diphenylpyrazolium salt with 2,4,6-trichloro-N--aci-nitroaniline]
% Reduction in Plant Height over untreated controls ([2]; rate 0.125 kg/ha): > 10% | % Reduction in Plant Height over untreated controls ([2]; rate 0.25 kg/ha): > 15% | % Reduction in Plant Height over untreated controls ([2]; rate 0.5 kg/ha): > 25%

O=[N+]([O-])Nc1c(Br)cc(Br)cc1Br [2,4,6-Tribromo-N--nitroaniline, diisopropylamine (1:1)salt]
% Increase in Plant Canopy over untreated controls ([1]; rate 0.5 kg/ha): slight reduction

Cc1cc(C)c([N-][N+](=O)[O-])c(C)c1.Cn1c(-c2ccccc2)cc(-c2ccccc2)[n+]1C [1,2-Dimethyl-3,5-diphenylpyrazolium salt with 2,4,6-Trimethyl-N--aci-nitroaniline]
% Reduction in Plant Height over untreated controls ([2]; rate 0.125 kg/ha): slight increase | % Reduction in Plant Height over untreated controls ([2]; rate 0.25 kg/ha): > 5% | % Reduction in Plant Height over untreated controls ([2]; rate 0.5 kg/ha): > 10% | % Increase in Plant Canopy over untreated controls ([1]; rate 0.125 kg/ha): normal | % Increase in axillary branching over untreated controls ([1]; rate 0.125 kg/ha): normal

O=[N+]([O-])Nc1c(Br)cc(Br)cc1Br [2,4,6-Tribromo-N--nitroaniline, Calcium salt]
% Increase in Plant Canopy over untreated controls ([1]; rate 0.25 kg/ha, listed as 2,4,6-Tribromo-N--aci-nitroaniline calcium salt (2:1), Calcium salt): slight reduction | % Increase in Plant Canopy over untreated controls ([1]; rate 0.5 kg/ha, listed as 2,4,6-Tribromo-N--aci-nitroaniline calcium salt (2:1), Calcium salt): moderate reduction

Cn1c(-c2ccccc2)cc(-c2ccccc2)[n+]1C.O=[N+]([O-])[N-]c1c(Br)cc(Cl)cc1Br [1,2-Dimethyl-3,5-diphenylpyrazolium salt with 2,6-dibromo-4-chloro-N--aci-nitroaniline]
% Reduction in Plant Height over untreated controls ([2]; rate 0.125 kg/ha): > 25% | % Reduction in Plant Height over untreated controls ([2]; rate 0.25 kg/ha): > 30% | % Reduction in Plant Height over untreated controls ([2]; rate 0.5 kg/ha): > 40% | % Increase in Plant Canopy over untreated controls ([1]; rate 0.125 kg/ha): normal

1,2-Dimethyl-3,5-diphenylpyrazolium salt with 2,6-dibromo-α,α,α-trifluoro-N--aci-nitro-o-toluidine
% Reduction in Plant Height over untreated controls ([2]; rate 0.125 kg/ha): > 10% | % Reduction in Plant Height over untreated controls ([2]; rate 0.25 kg/ha): > 15% | % Reduction in Plant Height over untreated controls ([2]; rate 0.5 kg/ha): > 20%

3-(p-Fluorophenyl)-1,2-dimethyl-3,5-diphenylpyrazolium salt with 2,4,6-tribromo-N--aci-nitroaniline
% Increase in Plant Canopy over untreated controls ([1]; rate 0.125 kg/ha): normal | % Increase in axillary branching over untreated controls ([1]; rate 0.125 kg/ha): normal | % Increase in axillary branching over untreated controls ([1]; rate 0.5 kg/ha): normal

O=[N+]([O-])Nc1c(Br)cc(Br)cc1Br [2,4,6-Tribromo-N--nitroaniline, magnesium salt]
% Increase in Plant Canopy over untreated controls ([1]; rate 0.25 kg/ha, listed as 2,4,6-Tribromo-N--aci-nitroaniline, magnesium salt (2:1)): moderate reduction | % Increase in Plant Canopy over untreated controls ([1]; rate 0.5 kg/ha, listed as 2,4,6-Tribromo-N--aci-nitroaniline, magnesium salt (2:1)): moderate reduction

O=[N+]([O-])Nc1c(Br)cc(Br)cc1Br [1-Hexadecylpyridinium salt with 2,4,6-tribromo-N-- aci-nitro] [1-Hexadecylpyridinium salt with 2,4,6-tribromo-N-- aci-nitroaniline]
% Reduction in Plant Height over untreated controls ([2]; rate 0.125 kg/ha): > 35% | % Reduction in Plant Height over untreated controls ([2]; rate 0.25 kg/ha): > 35% | % Reduction in Plant Height over untreated controls ([2]; rate 0.5 kg/ha): > 50%

O=[N+]([O-])Nc1c(Br)cc(Br)cc1Br [2,4,6-Tribromo-N--nitroaniline, triethylamine (1:1)salt]
% Increase in axillary branching over untreated controls ([1]; rate 0.125 kg/ha): normal | % Increase in Plant Canopy over untreated controls ([1]; rate 0.25 kg/ha): slight reduction | % Increase in Plant Canopy over untreated controls ([1]; rate 0.5 kg/ha): slight reduction

O=[N+]([O-])Nc1c(Br)cccc1Br [Sodium salt of 2,6-dibromo-N--nitroaniline]
Stem stiffness ([3]; rate 0.25 kg/ha): 4 | Tiller formation ([3]; rate 0.25 kg/ha): 4 | Weight Fresh ([3]; rate 0.25 kg/ha): 55.6 g | Height ([3]; rate 0.25 kg/ha): 50.2 cm | Phytotoxicity ([3]; rate 0.25 kg/ha): 5 (No increase over controls) | Stem stiffness ([3]; rate 0.5 kg/ha): 4 | Tiller formation ([3]; rate 0.5 kg/ha): 3 (Moderate, significant increase over controls.) | Weight Dry ([3]; rate 0.5 kg/ha): 6.4 g | Weight Fresh ([3]; rate 0.5 kg/ha): 57.6 g | Height ([3]; rate 0.5 kg/ha): 47.2 cm | Phytotoxicity ([3]; rate 0.5 kg/ha): 5 (No increase over controls) | Stem stiffness ([3]; rate 1.0 kg/ha): 3 (Moderate, significant increase over controls.) | Tiller formation ([3]; rate 1.0 kg/ha): 3 (Moderate, significant increase over controls.) | Weight Fresh ([3]; rate 1.0 kg/ha): 55.5 g | Height ([3]; rate 1.0 kg/ha): 47.0 cm | Phytotoxicity ([3]; rate 1.0 kg/ha): 5 (No increase over controls)

Brn1c(-c2ccccc2)cc(-c2ccccc2)[n+]1Br.O=[N+]([O-])[N-]c1c(Br)cccc1Br [1,2-Dibromo-3,5-diphenylpyrazolium salt with 2,6-dibromo-N--aci-nitroaniline]
Stem stiffness ([3]; rate 0.25 kg/ha): 4 | Tiller formation ([3]; rate 0.25 kg/ha): 5 (No increase over controls) | Weight Dry ([3]; rate 0.25 kg/ha): 6.9 g | Weight Fresh ([3]; rate 0.25 kg/ha): 59.2 g | Height ([3]; rate 0.25 kg/ha): 58.2 cm | Phytotoxicity ([3]; rate 0.25 kg/ha): 5 (No increase over controls) | Stem stiffness ([3]; rate 0.5 kg/ha): 4 | Tiller formation ([3]; rate 0.5 kg/ha): 5 (No increase over controls) | Weight Dry ([3]; rate 0.5 kg/ha): 6.7 g | Weight Fresh ([3]; rate 0.5 kg/ha): 60.7 g | Height ([3]; rate 0.5 kg/ha): 53.3 cm | Phytotoxicity ([3]; rate 0.5 kg/ha): 5 (No increase over controls) | Stem stiffness ([3]; rate 1.0 kg/ha): 3 (Moderate, significant increase over controls.) | Tiller formation ([3]; rate 1.0 kg/ha): 3 (Moderate, significant increase over controls.) | Weight Dry ([3]; rate 1.0 kg/ha): 5.9 g | Weight Fresh ([3]; rate 1.0 kg/ha): 60.4 g | Height ([3]; rate 1.0 kg/ha): 52.3 cm | Phytotoxicity ([3]; rate 1.0 kg/ha): 5 (No increase over controls)

Tributyl(2,4-dichlorobenzyl)phosphonium salt with aniline
% Reduction in Plant Height over untreated controls ([2]; rate 0.125 kg/ha): > 8% | % Reduction in Plant Height over untreated controls ([2]; rate 0.25 kg/ha): > 25% | % Reduction in Plant Height over untreated controls ([2]; rate 0.5 kg/ha): > 50%

O=[N+]([O-])Nc1c(Br)cc(Br)cc1Br [Benzyltriethylammonium salt with 2,4,6-tribromo-N--aci-nitro] [Benzyltriethylammonium salt with 2,4,6-tribromo-N--aci-nitroaniline]
% Reduction in Plant Height over untreated controls ([2]; rate 0.125 kg/ha): > 25% | % Reduction in Plant Height over untreated controls ([2]; rate 0.25 kg/ha): > 35% | % Reduction in Plant Height over untreated controls ([2]; rate 0.5 kg/ha): > 50% | % Increase in Plant Canopy over untreated controls ([1]; rate 0.125 kg/ha): normal | % Increase in axillary branching over untreated controls ([1]; rate 0.125 kg/ha): normal | % Increase in axillary branching over untreated controls ([1]; rate 0.25 kg/ha): normal

O=[N+]([O-])Nc1c(Br)cc(Br)cc1Br [Dibenzylamine(1:1)with 2,4,6-tribromo-N--nitroaniline]
% Reduction in Plant Height over untreated controls ([2]; rate 0.125 kg/ha): > 25% | % Reduction in Plant Height over untreated controls ([2]; rate 0.25 kg/ha): > 35% | % Reduction in Plant Height over untreated controls ([2]; rate 0.5 kg/ha): > 50%

Cn1c(-c2ccccc2)cc(C2CCCCC2)[n+]1C.O=[N+]([O-])[N-]c1c(Br)cc(Br)cc1Br [3-Cyclohexyl-1,2-dimethyl-5-phenylpyrazolium salt with 2,4,6-tribromo-N--aci-nitroaniline]
% Reduction in Plant Height over untreated controls ([2]; rate 0.125 kg/ha): > 10% | % Reduction in Plant Height over untreated controls ([2]; rate 0.25 kg/ha): > 20% | % Reduction in Plant Height over untreated controls ([2]; rate 0.5 kg/ha): > 40% | % Increase in Plant Canopy over untreated controls ([1]; rate 0.5 kg/ha): slight reduction
